Test results taken from patent US20250000843A1, “LIGNAN-INSPIRED COMPOUNDS, METHODS OF MAKING, AND USING THEREOF” (IOWAIBO, INC., priority 2023, published 2025).

How the values were obtained:
[1] = system: PC3, a human prostate cancer cell line; assay: MTT toxicity assay in PC3 prostate cancer cells; assay type: cell-based
Experimental: Toxicity of the dibenzyl butyl lactone derivative (3-[(3,4-dimethoxyphenyl)cyclopentyl], 4-[(3-hydroxyphenol)methyl]oxolan-2-one) in breast cancer cells was evaluated using MTT assay. The MTT toxicity test is a colorimetric assay to measure cells' metabolic activity by serving as a substrate of cellular enzymes that reduce the tetrazolium orange dye, MTT (3-(4,5-Dimethylthiazol-2-yl)-2,5-diphenyltetrazolium bromide) to its insoluble, formazan, giving a purple color. The rate of conversion is directly proportional to cells' mitochondrial metabolic activity via NAD (P) H-dependent cellular oxidoreductase enzymes and serves as a surrogate marker of cell viability.
Cells previously expanded were seeded in 96 well plates at 1.9×10^5 and 9.6×10^4 cells/plate for 24- and 72-hours treatment respectively. This concentration is known to show the best window for the MTT assay, with better sensitivity and low variability.
5 mg of powdered enterolactone, dibenzyl butyl lactone derivative enantiomer A, and dibenzyl butyl lactone derivative enantiomer B were dissolved in 500 μl of DMSO at room temperature. Eight-point curves, ⅓ dilutions (highest concentration 125 μM), were prepared.
Twenty-four hours following the seeding process, the cells were washed once with phosphate buffered saline (PBS) and treated with the respective compounds in cell culture media. Each condition was tested in triplicates. For positive and negative controls, 8 mM methyl methane sulfonate (MMS) and DMSO 100% were used respectively.
Following compound addition, the plates were incubated for 24 and 72 hours. After the treatment period, cells were washed twice with PBS and media was replaced with MTT reagent at 0.5 mg/ml in Dulbecco's modified Eagle medium (DMEM) without phenol red. The plates were gently shaken and incubated for 4 hours. After the incubation the medium was removed and replaced by DMSO. The plates were gently shaken to solubilize the formazan crystals. Absorbance was measured using an Envision multiplate reader at a wavelength of 570 nm.
Toxicity of the dibenzyl butyl lactone derivative (3-[(3,4-dimethoxyphenyl)cyclopentyl], 4-[(3-hydroxyphenol)methyl]oxolan-2-one) in prostate cancer cells was evaluated using MTT assay. The same methods as those used in Example 2 were employed, except the cell line used was PC3, a human prostate cancer cell line, and cell cultures were established in Kaighn's modification of Ham's […] medium.
MTT assay results are shown in Tables 16-21 and expressed as the percentage of cell death after treatment.

telomerase = telomerase (Homo sapiens, UniProt O14746); assay: Q-TRAP telomerase activity in MCF7 breast cancer cells; assay type: cell-based; set-up: allow the enzymatic addition of telomeric DNA repeats by endogenous telomerase; endogenous in cells
Chain of telomerase (O14746 whole entry): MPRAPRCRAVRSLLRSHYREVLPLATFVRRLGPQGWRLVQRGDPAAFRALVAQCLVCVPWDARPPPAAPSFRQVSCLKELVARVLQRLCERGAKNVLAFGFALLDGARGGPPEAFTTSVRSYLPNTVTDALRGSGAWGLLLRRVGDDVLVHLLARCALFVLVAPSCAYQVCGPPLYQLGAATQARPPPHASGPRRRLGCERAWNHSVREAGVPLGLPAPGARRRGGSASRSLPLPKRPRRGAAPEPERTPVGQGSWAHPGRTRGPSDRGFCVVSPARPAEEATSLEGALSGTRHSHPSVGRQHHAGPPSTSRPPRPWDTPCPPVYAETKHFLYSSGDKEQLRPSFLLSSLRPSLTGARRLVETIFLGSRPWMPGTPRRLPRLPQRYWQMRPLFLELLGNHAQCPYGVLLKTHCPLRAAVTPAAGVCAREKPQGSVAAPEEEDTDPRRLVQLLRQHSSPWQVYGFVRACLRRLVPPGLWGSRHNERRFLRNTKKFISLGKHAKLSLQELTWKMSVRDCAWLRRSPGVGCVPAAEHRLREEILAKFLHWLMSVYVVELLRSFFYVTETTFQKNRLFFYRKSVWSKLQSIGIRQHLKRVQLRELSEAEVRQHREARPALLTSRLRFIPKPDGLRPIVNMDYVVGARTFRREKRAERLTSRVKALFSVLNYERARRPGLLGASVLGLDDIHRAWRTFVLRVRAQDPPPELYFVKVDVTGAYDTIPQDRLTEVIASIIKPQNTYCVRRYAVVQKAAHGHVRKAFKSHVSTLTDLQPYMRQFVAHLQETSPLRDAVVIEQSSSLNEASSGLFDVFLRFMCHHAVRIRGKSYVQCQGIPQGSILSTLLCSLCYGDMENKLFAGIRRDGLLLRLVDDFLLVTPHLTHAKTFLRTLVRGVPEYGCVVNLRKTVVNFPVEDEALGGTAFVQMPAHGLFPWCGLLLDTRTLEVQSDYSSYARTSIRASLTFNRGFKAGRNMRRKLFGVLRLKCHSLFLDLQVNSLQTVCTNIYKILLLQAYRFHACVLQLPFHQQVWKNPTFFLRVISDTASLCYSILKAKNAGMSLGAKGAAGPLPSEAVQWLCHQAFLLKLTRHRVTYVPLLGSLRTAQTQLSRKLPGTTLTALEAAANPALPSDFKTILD
Chain of telomerase (O60832 whole entry partner): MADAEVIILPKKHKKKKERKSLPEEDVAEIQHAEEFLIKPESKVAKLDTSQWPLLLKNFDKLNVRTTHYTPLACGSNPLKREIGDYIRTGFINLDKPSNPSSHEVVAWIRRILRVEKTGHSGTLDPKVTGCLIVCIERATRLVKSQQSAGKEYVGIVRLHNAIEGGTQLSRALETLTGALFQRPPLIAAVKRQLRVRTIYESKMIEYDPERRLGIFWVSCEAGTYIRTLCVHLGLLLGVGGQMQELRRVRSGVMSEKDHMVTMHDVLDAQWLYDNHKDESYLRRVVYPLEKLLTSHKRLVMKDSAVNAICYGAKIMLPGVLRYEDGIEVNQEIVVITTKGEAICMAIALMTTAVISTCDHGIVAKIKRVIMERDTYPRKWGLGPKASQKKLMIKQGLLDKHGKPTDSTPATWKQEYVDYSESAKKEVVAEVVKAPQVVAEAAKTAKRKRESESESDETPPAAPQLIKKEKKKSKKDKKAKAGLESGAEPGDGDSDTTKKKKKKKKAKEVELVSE
Chain of telomerase (Q9NPE3 whole entry partner): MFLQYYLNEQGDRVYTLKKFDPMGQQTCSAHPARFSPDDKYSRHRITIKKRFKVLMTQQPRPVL
Chain of telomerase (Q9NX24 whole entry partner): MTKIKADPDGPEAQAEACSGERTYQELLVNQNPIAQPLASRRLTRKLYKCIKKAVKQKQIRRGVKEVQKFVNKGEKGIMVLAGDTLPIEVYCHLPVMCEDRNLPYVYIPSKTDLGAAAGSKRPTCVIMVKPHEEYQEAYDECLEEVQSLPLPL
Chain of telomerase (Q9NY12 whole entry partner): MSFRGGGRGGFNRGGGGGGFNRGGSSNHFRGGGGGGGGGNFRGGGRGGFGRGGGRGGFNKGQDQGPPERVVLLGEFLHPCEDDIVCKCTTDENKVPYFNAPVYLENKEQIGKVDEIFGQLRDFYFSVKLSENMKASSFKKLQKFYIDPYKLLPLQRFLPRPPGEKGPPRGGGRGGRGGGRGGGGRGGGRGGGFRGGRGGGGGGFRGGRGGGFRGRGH
Chain of telomerase (Q9BUR4 whole entry partner): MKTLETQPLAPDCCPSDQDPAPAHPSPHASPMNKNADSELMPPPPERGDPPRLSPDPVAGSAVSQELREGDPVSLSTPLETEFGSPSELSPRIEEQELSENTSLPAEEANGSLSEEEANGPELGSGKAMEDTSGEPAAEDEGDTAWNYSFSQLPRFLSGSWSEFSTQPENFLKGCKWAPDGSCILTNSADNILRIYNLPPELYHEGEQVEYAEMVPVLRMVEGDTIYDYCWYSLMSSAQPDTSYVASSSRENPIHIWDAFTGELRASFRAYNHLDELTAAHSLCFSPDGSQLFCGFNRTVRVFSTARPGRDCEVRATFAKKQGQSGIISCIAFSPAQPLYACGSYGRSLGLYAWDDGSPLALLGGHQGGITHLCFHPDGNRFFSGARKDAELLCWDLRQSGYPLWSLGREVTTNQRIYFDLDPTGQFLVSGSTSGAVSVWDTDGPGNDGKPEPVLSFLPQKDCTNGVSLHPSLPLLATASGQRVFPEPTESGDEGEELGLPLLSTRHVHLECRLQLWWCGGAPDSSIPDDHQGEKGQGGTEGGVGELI

`O=C1OCC(Cc2ccc3c(c2)OCO3)/C1=C\c1cccc(O)c1` (single isomer, unassigned) [Enantiomer B, 3-[(3,4-dimethoxyphenyl)cyclopentyl], 4-[(3-hydroxyphenol)methyl]oxolan-2-one] was tested, and the “Cell death #1 (%)” value ([1]; PC3, 24 hours, 0.06 μM) was −14.60%, the “Cell death #2 (%)” value ([1]; PC3, 24 hours, 0.06 μM) was −12.15% and the “Cell death #3 (%)” value ([1]; PC3, 24 hours, 0.06 μM) was −1.24%. The “Cell death (%) MEAN” value ([1]; PC3, 24 hours, 0.06 μM) was −9.33%, the “Cell death #1 (%)” value ([1]; PC3, 24 hours, 0.17 μM) was −22.81% and the “Cell death #2 (%)” value ([1]; PC3, 24 hours, 0.17 μM) was −20.24%. The “Cell death #3 (%)” value ([1]; PC3, 24 hours, 0.17 μM) was −14.35%, the “Cell death (%) MEAN” value ([1]; PC3, 24 hours, 0.17 μM) was −19.13% and the “Cell death #1 (%)” value ([1]; PC3, 24 hours, 0.51 μM) was −15.09%. The “Cell death #2 (%)” value ([1]; PC3, 24 hours, 0.51 μM) was −34.33%, the “Cell death #3 (%)” value ([1]; PC3, 24 hours, 0.51 μM) was −34.94% and the “Cell death (%) MEAN” value ([1]; PC3, 24 hours, 0.51 μM) was −28.12%. For the same compound, the “Cell death #1 (%)” value ([1]; PC3, 24 hours, 1.54 μM) was −58.35%, the “Cell death #2 (%)” value ([1]; PC3, 24 hours, 1.54 μM) was −51.85% and the “Cell death #3 (%)” value ([1]; PC3, 24 hours, 1.54 μM) was −43.77%. For the same compound, the “Cell death (%) MEAN” value ([1]; PC3, 24 hours, 1.54 μM) was −51.32%, the “Cell death #1 (%)” value ([1]; PC3, 24 hours, 4.63 μM) was −72.93% and the “Cell death #2 (%)” value ([1]; PC3, 24 hours, 4.63 μM) was −63.74%. For the same compound, the “Cell death #3 (%)” value ([1]; PC3, 24 hours, 4.63 μM) was −39.60%, the “Cell death (%) MEAN” value ([1]; PC3, 24 hours, 4.63 μM) was −58.76% and the “Cell death #1 (%)” value ([1]; PC3, 24 hours, 13.89 μM) was −71.22%. For the same compound, the “Cell death #2 (%)” value ([1]; PC3, 24 hours, 13.89 μM) was −63.50%, the “Cell death #3 (%)” value ([1]; PC3, 24 hours, 13.89 μM) was −63.74% and the “Cell death (%) MEAN” value ([1]; PC3, 24 hours, 13.89 μM) was −66.15%. For the same compound, the “Cell death #1 (%)” value ([1]; PC3, 24 hours, 41.67 μM) was −68.77%, the “Cell death #2 (%)” value ([1]; PC3, 24 hours, 41.67 μM) was −35.80% and the “Cell death #3 (%)” value ([1]; PC3, 24 hours, 41.67 μM) was −33.35%. For the same compound, the “Cell death (%) MEAN” value ([1]; PC3, 24 hours, 41.67 μM) was −45.97%, the “Cell death #1 (%)” value ([1]; PC3, 24 hours, 125.00 μM) was 6.23% and the “Cell death #2 (%)” value ([1]; PC3, 24 hours, 125.00 μM) was 3.54%. The “Cell death #3 (%)” value ([1]; PC3, 24 hours, 125.00 μM) was 4.64%, the “Cell death (%) MEAN” value ([1]; PC3, 24 hours, 125.00 μM) was 4.80% and the “Cell death #1 (%)” value ([1]; PC3, 72 hours, 0.06 μM) was −22.56%. For the same compound, the “Cell death #2 (%)” value ([1]; PC3, 72 hours, 0.06 μM) was −30.41%, the “Cell death #3 (%)” value ([1]; PC3, 72 hours, 0.06 μM) was −23.49% and the “Cell death (%) MEAN” value ([1]; PC3, 72 hours, 0.06 μM) was −25.49%. The “Cell death #1 (%)” value ([1]; PC3, 72 hours, 0.17 μM) was −33.20%, the “Cell death #2 (%)” value ([1]; PC3, 72 hours, 0.17 μM) was −39.41% and the “Cell death #3 (%)” value ([1]; PC3, 72 hours, 0.17 μM) was −29.79%. For the same compound, the “Cell death (%) MEAN” value ([1]; PC3, 72 hours, 0.17 μM) was −34.13%, the “Cell death #1 (%)” value ([1]; PC3, 72 hours, 0.51 μM) was −47.57% and the “Cell death #2 (%)” value ([1]; PC3, 72 hours, 0.51 μM) was −52.84%. For the same compound, the “Cell death #3 (%)” value ([1]; PC3, 72 hours, 0.51 μM) was −52.74%, the “Cell death (%) MEAN” value ([1]; PC3, 72 hours, 0.51 μM) was −51.05% and the “Cell death #1 (%)” value ([1]; PC3, 72 hours, 1.54 μM) was −52.64%. The “Cell death #2 (%)” value ([1]; PC3, 72 hours, 1.54 μM) was −40.34%, the “Cell death #3 (%)” value ([1]; PC3, 72 hours, 1.54 μM) was −51.19% and the “Cell death (%) MEAN” value ([1]; PC3, 72 hours, 1.54 μM) was −48.05%. The “Cell death #1 (%)” value ([1]; PC3, 72 hours, 4.63 μM) was −45.81%, the “Cell death #2 (%)” value ([1]; PC3, 72 hours, 4.63 μM) was −40.03% and the “Cell death #3 (%)” value ([1]; PC3, 72 hours, 4.63 μM) was −52.74%. For the same compound, the “Cell death (%) MEAN” value ([1]; PC3, 72 hours, 4.63 μM) was −46.19%, the “Cell death #1 (%)” value ([1]; PC3, 72 hours, 13.89 μM) was −33.31% and the “Cell death #2 (%)” value ([1]; PC3, 72 hours, 13.89 μM) was −22.56%. The “Cell death #3 (%)” value ([1]; PC3, 72 hours, 13.89 μM) was −34.75%, the “Cell death (%) MEAN” value ([1]; PC3, 72 hours, 13.89 μM) was −30.21% and the “Cell death #1 (%)” value ([1]; PC3, 72 hours, 41.67 μM) was 11.03%. For the same compound, the “Cell death #2 (%)” value ([1]; PC3, 72 hours, 41.67 μM) was 11.96%, the “Cell death #3 (%)” value ([1]; PC3, 72 hours, 41.67 μM) was 14.65% and the “Cell death (%) MEAN” value ([1]; PC3, 72 hours, 41.67 μM) was 12.55%. The “Cell death #1 (%)” value ([1]; PC3, 72 hours, 125.00 μM) was 64.88%, the “Cell death #2 (%)” value ([1]; PC3, 72 hours, 125.00 μM) was 61.78% and the “Cell death #3 (%)” value ([1]; PC3, 72 hours, 125.00 μM) was 57.24%. The “Cell death (%) MEAN” value ([1]; PC3, 72 hours, 125.00 μM) was 61.30%, the “prostate cancer cell death as compared to enterolactone” value ([1]; PC3, at higher concentrations, 24 hours and 72 hours post-treatment) was “increased prostate cancer cell death as compared to enterolactone” and the “Telomerase Activity RTA (%)” value (telomerase; MCF7, 2.5 μM, 24 Hours) was 47.79%. The “Telomerase Activity RTA (%)” value (telomerase; MCF7, 2.5 μM, 48 Hours) was 23.71%, the “Telomerase Activity RTA (%)” value (telomerase; MCF7, 2.5 μM, 72 Hours) was 15.49% and the “Telomerase Activity RTA (%)” value (telomerase; MCF7, 5 μM, 24 Hours) was 48.30%. The “Telomerase Activity RTA (%)” value (telomerase; MCF7, 5 μM, 48 Hours) was 31.70%, the “Telomerase Activity RTA (%)” value (telomerase; MCF7, 5 μM, 72 Hours) was 14.68% and the “Telomerase Activity RTA (%)” value (telomerase; MCF7, 10 μM, 24 Hours) was 59.90%. The “Telomerase Activity RTA (%)” value (telomerase; MCF7, 10 μM, 48 Hours) was 32.76%, the “Telomerase Activity RTA (%)” value (telomerase; MCF7, 10 μM, 72 Hours) was 16.26% and the “Telomerase Activity RTA (%)” value (telomerase; MCF7, 20 μM, 24 Hours) was 44.48%. For the same compound, the “Telomerase Activity RTA (%)” value (telomerase; MCF7, 20 μM, 48 Hours) was 44.82%, the “Telomerase Activity RTA (%)” value (telomerase; MCF7, 20 μM, 72 Hours) was 16.69% and the “Telomerase Activity RTA (%)” value (telomerase; MCF7, 40 μM, 24 Hours) was 53.63%. For the same compound, the “Telomerase Activity RTA (%)” value (telomerase; MCF7, 40 μM, 48 Hours) was 26.82%, the “Telomerase Activity RTA (%)” value (telomerase; MCF7, 40 μM, 72 Hours) was 10.17% and the IC50 (telomerase; MCF7, 24 h) was > 40 µM. The “telomerase activity levels of treated groups compared to control” value (telomerase; MCF7, 24 hours) was “lower telomerase activity levels compared to control”, the “Significance of RTA difference vs. control” value (telomerase; MCF7, 24 hours, 5 μM) was “YES (*)” and the “Significance of RTA difference vs. control” value (telomerase; MCF7, 24 hours, 10 μM) was “YES (*)”. For the same compound, the “Significance of RTA difference vs. control” value (telomerase; MCF7, 24 hours, 20 μM) was “YES (*)”, the “Significance of RTA difference vs. control” value (telomerase; MCF7, 24 hours, 40 μM) was “YES (*)” and the IC50 (telomerase; MCF7, 48 h) was 5.17 µM. For the same compound, the “telomerase activity levels of treated groups compared to control” value (telomerase; MCF7, 48 hours) was “lower telomerase activity levels compared to control, even more pronounced than 24 hours”, the “Significance of RTA difference vs. control” value (telomerase; MCF7, 48 hours, 2.5 μM) was “YES (*)” and the “Significance of RTA difference vs. control” value (telomerase; MCF7, 48 hours, 10 μM) was “YES (*)”. For the same compound, the “Significance of RTA difference vs. control” value (telomerase; MCF7, 48 hours, 40 μM) was “YES (*)”, the IC50 (telomerase; MCF7, 72 h) was > 40 µM and the “telomerase activity levels of treated groups compared to control” value (telomerase; MCF7, 72 hours) was “the group treated with the highest concentration presented lower RTA levels”. For the same compound, the “Significance of RTA difference vs. control” value (telomerase; MCF7, 72 hours, 2.5 μM) was “YES (*)” and the telomerase inhibition effect (telomerase; MCF7 breast cancer cells) was “exhibit a telomerase inhibition effect”.
